In experiment [1] the test system is HeLa. The experiment in a line: Cytotoxicity against human HeLa3 cell line by MTT assay. Format: functional, cell-based. In general terms: Tetrazolium dyes change colour on reduction, which living cells bring about.
For experiment [2], the system named is HeLa. The experiment in a line: Cytotoxicity against human HeLa3 cell line in presence of ethanethiol by MTT assay. In kind it is functional, cell-based.

Molecules are shown by their SMILES.

This is an account of results in ChEMBL document CHEMBL1146888, “Synthesis and cytotoxicity of leinamycin antibiotic analogues” (J Med Chem, 2006).

The term IC50 denotes the concentration at which inhibition is half-maximal.

`CC1(C)O[C@H]([C@H]2COC(C)(C)O2)[C@@H](C2CC(=O)S[S+]2[O-])O1` (stereo partly drawn): the IC50 in the experiment with HeLa [1] is 18.2 µM; in the experiment on HeLa [2], 12.6 µM.

As for `O=C1CC(CCc2ccccc2)[S+]([O-])S1` (stereo not drawn), the values for the 50% inhibitory concentration (IC50) with HeLa [1] and in the experiment on HeLa [2] were 68.4 µM and 24.8 µM, respectively.

With `O=C1CC(CCc2ccccc2)SS1` (stereo not drawn), the IC50 in the experiment with HeLa [1] turned out to be 258 µM; with HeLa [2], 65.5 µM.

Regarding `Cc1cn([C@H]2C[C@H](O)[C@@H](C3CC(=O)SS3)O2)c(=O)[nH]c1=O` (stereo partly drawn), the concentration for half-maximal inhibition (IC50) in the experiment on HeLa [1] was 299 µM; in the experiment with HeLa [2], 54.6 µM.

On to `Cc1cn([C@H]2C[C@H](O)[C@@H](C3CC(=O)S[S+]3[O-])O2)c(=O)[nH]c1=O` (stereo partly drawn), for which the half-maximal inhibitory concentration (IC50) in the experiment with HeLa [1] was determined as 119 µM; in the experiment with HeLa [2], 29.7 µM.

As for `CC(C)(C)[Si](C)(C)O[C@@H]1[C@H](O[Si](C)(C)C(C)(C)C)[C@@H](C2CC(=O)SS2)O[C@H]1n1ccc(=O)[nH]c1=O` (stereo partly drawn), the half-maximal inhibitory concentration (IC50) in the experiment with HeLa [1] is 10 µM; in the experiment with HeLa [2], 7.84 µM.

For `O=C1CC(CCC#CCOC2CCCCO2)SS1` (stereo not drawn), the half-inhibitory concentration (IC50) in the experiment on HeLa [1] came to 124 µM; in the experiment with HeLa [2] it was 20.1 µM.

Consider `O=C1CC([C@H]2O[C@@H](n3ccc(=O)[nH]c3=O)[C@H](O)[C@@H]2O)[S+]([O-])S1` (stereo partly drawn), for which the half-inhibitory concentration (IC50) came out at 50.7 µM with HeLa [1] and 7.01 µM in the experiment with HeLa [2].

Consider `Cc1cn([C@H]2C[C@H](O[Si](C)(C)C(C)(C)C)[C@@H](C3CC(=O)SS3)O2)c(=O)[nH]c1=O` (stereo partly drawn), for which the IC50 in the experiment on HeLa [2] was 16.7 µM.

Consider `CC(C)(C)[Si](C)(C)O[C@@H]1[C@H](O[Si](C)(C)C(C)(C)C)[C@@H](C2CC(=O)S[S+]2[O-])O[C@H]1n1ccc(=O)[nH]c1=O` (stereo partly drawn), for which the IC50 in the experiment on HeLa [1] worked out at 3.68 µM; in the experiment on HeLa [2], 2.67 µM.

Take `Cc1cn([C@H]2C[C@H](O[Si](C)(C)C(C)(C)C)[C@@H](C3CC(=O)S[S+]3[O-])O2)c(=O)[nH]c1=O` (stereo partly drawn): the 50% inhibitory concentration (IC50) turned out to be 43.1 µM in the experiment on HeLa [1] and 6.61 µM in the experiment with HeLa [2].

Consider `O=C1CC(CCC#CCOC2CCCCO2)[S+]([O-])S1` (stereo not drawn), for which the results for the concentration for half-maximal inhibition (IC50) with HeLa [1] and in the experiment with HeLa [2] were 62.9 µM and 8.33 µM, respectively.

For the compound `CC1(C)O[C@H]([C@H]2COC(C)(C)O2)[C@@H](C2CC(=O)SS2)O1` (stereo partly drawn), the IC50 in the experiment on HeLa [1] came to 35.9 µM; in the experiment with HeLa [2], 16.9 µM.

As to `O=C1CC([C@H]2O[C@@H](n3ccc(=O)[nH]c3=O)[C@H](O)[C@@H]2O)SS1` (stereo partly drawn), the results for the concentration for half-maximal inhibition (IC50) with HeLa [1] and in the experiment with HeLa [2] were 62.2 µM and 20.7 µM, respectively.

Compound `COc1cccc2c1C(=O)c1c(O)c3c(c(O)c1C2=O)C[C@@](O)(C(C)=O)C[C@@H]3OC1C[C@H](N)[C@H](O)[C@H](C)O1` (single isomer, unassigned) [DAUNORUBICIN] registered an IC50 in the experiment on HeLa [1] of 2.96 µM.
